Measurements as given in ChEMBL document CHEMBL3392994, “Methoxyflavones from Stachys glutinosa with binding affinity to opioid receptors: in silico, in vitro, and in vivo studies” (J Nat Prod, 2015).
The source made the active and inactive calls. No cut-off for these calls is given here.

Tests used:
Mu-type opioid receptor = Mu-type opioid receptor (Mus musculus, UniProt P42866); assay: Displacement of [3H]DAMGO from mu opioid receptor in CD1 mouse whole brain minus cerebellum membranes by liquid scintillation counting; format: tissue-based, Membrane
[1] = molecular target: Delta-type opioid receptor (Mus musculus, UniProt P32300); assay: Displacement of [3H]DPDPE from delta opioid receptor in CD1 mouse whole brain minus cerebellum membranes by liquid scintillation counting; format: tissue-based, Membrane
Mus musculus [2] = species on record: Mus musculus; assay: Selectivity ratio of Ki for delta opioid receptor in CD1 mouse whole brain minus cerebellum membranes to Ki for mu opioid receptor in CD1 mouse whole brain minus cerebellum membranes; format: tissue-based
Mus musculus [3] = assay: Analgesic activity in acute pain CD1 mouse model assessed as withdrawal latency from radiant heat source at 40 to 80 mg/kg, ip by tail-flick assay; format: functional, organism-based
Mus musculus [4] = assay: Inhibition of morphine-induced analgesia in CD1 mouse model at 80 mg/kg, ip pretreated 30 mins before 5 mg/kg, sc morphine injection and measured 30 to 120 mins after morphine treatment by tail-flick assay relative to control; format: functional, organism-based
Mus musculus [5] = assay: Inhibition of morphine-induced analgesia in CD1 mouse model at 40 mg/kg, ip pretreated 30 mins before 5 mg/kg, sc morphine injection and measured 30 to 120 mins after morphine treatment by tail-flick assay relative to control; format: functional, organism-based

SMILES: C=CC(C)(O)CC[C@@]1(C)[C@H](C)CC[C@]2(C)[C@@H]1C[C@@H](O)[C@H]1O[C@]12C (stereo partly drawn)
- Ki (Mu-type opioid receptor): > 50 µM
- Ki [1]: 25 µM

SMILES: C=CC(C)(O)CC[C@@]1(C)[C@H](C)CC[C@@]2(C)C(C)=CC(=O)C[C@H]12 (stereo partly drawn)
- Ki (Mu-type opioid receptor): 40.5 µM
- Ki [1]: 23.5 µM

SMILES: COc1cc(-c2cc(=O)c3c(O)c(OC)c(OC)c(OC)c3o2)ccc1O
- Ki (Mu-type opioid receptor): > 50 µM
- Ki [1]: 37.5 µM

SMILES: COc1ccc(-c2cc(=O)c3c(O)c(OC)c(O)cc3o2)cc1OC [EUPATILIN]
- Ki (Mu-type opioid receptor): 28 µM
- Ki [1]: 12 µM
- Ratio Ki (Mus musculus [2]): 0.43

SMILES: COc1ccc(-c2cc(=O)c3c(O)c(OC)c(OC)c(OC)c3o2)cc1 [GARDENIN B]
- Ki (Mu-type opioid receptor): > 50 µM
- Ki [1]: > 50 µM

SMILES: COc1c(OC)c(O)c2c(=O)cc(-c3ccc(O)c(O)c3)oc2c1OC [SIDERITIFLAVONE]
- Ki (Mu-type opioid receptor): 18.5 µM
- Ki [1]: 12.5 µM
- Ratio Ki (Mus musculus [2]): 0.68

SMILES: COc1ccc(-c2cc(=O)c3c(OC)c(OC)c(OC)c(OC)c3o2)cc1 [TANGERETIN]
- Ki (Mu-type opioid receptor): 16.3 µM
- Ki [1]: 7 µM
- Ratio Ki (Mus musculus [2]): 0.43

SMILES: COc1c(OC)c(O)c2c(=O)cc(-c3ccc(O)cc3)oc2c1OC [XANTHOMICROL]
- Ki (Mu-type opioid receptor): 0.83 µM
- Ki [1]: 3.6 µM
- Ratio Ki (Mus musculus [2]): 4.36
- Activity (Mus musculus [3]): inactive
- inhibition (Mus musculus [4]): Active
- inhibition (Mus musculus [5]): inactive
